ChEMBL document CHEMBL1159114, “Novel bis-arylsulfonamides and aryl sulfonimides as inactivators of plasminogen activator inhibitor-1 (PAI-1)” (Bioorg Med Chem Lett, 2010)

Experiments:
[1] = biological target: T1, Plasminogen activator inhibitor 1 (Homo sapiens, UniProt P05121); experiment: Inhibition of human recombinant PAI1 assessed as rate of AMC release after 30 mins
[2] = biological target: Antithrombin-III (Homo sapiens, UniProt P01008); experiment: Inhibition of antithrombin-3 assessed as residual alpha-thrombin activity
Chain of Antithrombin-III (P01008 whole entry): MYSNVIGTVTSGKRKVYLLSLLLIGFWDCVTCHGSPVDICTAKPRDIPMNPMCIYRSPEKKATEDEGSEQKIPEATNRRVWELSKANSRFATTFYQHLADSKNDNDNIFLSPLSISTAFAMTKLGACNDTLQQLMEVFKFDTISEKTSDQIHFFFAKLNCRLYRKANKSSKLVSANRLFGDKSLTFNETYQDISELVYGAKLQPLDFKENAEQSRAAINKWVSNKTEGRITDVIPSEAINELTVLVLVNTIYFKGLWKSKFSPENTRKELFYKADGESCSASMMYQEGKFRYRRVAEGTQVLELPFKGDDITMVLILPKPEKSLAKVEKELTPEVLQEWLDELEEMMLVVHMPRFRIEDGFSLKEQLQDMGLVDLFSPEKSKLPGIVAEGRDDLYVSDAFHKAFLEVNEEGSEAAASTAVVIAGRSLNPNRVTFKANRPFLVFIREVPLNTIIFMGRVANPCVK

[3] = biological target: T1, Plasminogen activator inhibitor 1; experiment: Inhibition of human recombinant PAI1 assessed as rate of AMC release at 300 uM after 30 mins

T1 sequence (P05121 whole entry): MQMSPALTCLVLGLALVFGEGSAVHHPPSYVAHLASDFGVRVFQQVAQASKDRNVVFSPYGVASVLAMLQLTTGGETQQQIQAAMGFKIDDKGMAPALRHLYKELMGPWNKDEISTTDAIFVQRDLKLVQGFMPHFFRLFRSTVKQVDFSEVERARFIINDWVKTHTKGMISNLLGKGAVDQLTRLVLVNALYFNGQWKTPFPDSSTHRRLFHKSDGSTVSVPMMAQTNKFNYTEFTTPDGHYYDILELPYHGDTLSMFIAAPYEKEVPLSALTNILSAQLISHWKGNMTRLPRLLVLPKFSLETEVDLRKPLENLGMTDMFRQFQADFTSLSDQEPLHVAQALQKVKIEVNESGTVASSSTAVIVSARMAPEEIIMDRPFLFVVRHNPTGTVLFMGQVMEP

Compound	IC50 [1]	IC50 [2]	inhibition [3]
O=S(=O)(c1ccc(O)c(O)c1)N1CCN(S(=O)(=O)c2ccc(O)c(O)c2)CC1	> 300 µM	> 300 µM	< 30%
CCN(CCN(CC)S(=O)(=O)c1cc(O)ccc1O)S(=O)(=O)c1cc(O)ccc1O	> 300 µM	> 300 µM	< 30%
CCCN(S(=O)(=O)c1ccc(O)c(O)c1)S(=O)(=O)c1ccc(O)c(O)c1	2.67 µM	> 1000 µM	
CCN(CCN(CC)S(=O)(=O)c1cc(F)c(O)c(F)c1)S(=O)(=O)c1cc(F)c(O)c(F)c1	128 µM	> 3000 µM	
O=S(=O)(NCCCCNS(=O)(=O)c1ccc(O)c(O)c1)c1ccc(O)c(O)c1	> 3000 µM	> 3000 µM	
CCN(CCN(CC)S(=O)(=O)c1ccccc1)S(=O)(=O)c1ccccc1	> 300 µM	> 300 µM	
CCN(CCN(CC)S(=O)(=O)c1ccc(O)cc1)S(=O)(=O)c1ccc(O)cc1	> 300 µM	> 300 µM	
CCCCCCN(S(=O)(=O)c1ccc(O)c(O)c1)S(=O)(=O)c1ccc(O)c(O)c1	0.284 µM	> 300 µM	
O=S(=O)(NCCCCCCNS(=O)(=O)c1ccc(O)c(O)c1)c1ccc(O)c(O)c1	1380 µM	> 3000 µM	
CCN(CCN(CC)S(=O)(=O)c1cccc(O)c1)S(=O)(=O)c1cccc(O)c1	343 µM	> 1000 µM	
O=S(=O)(c1ccc(O)c(O)c1)N(C1CCCCC1)S(=O)(=O)c1ccc(O)c(O)c1	0.594 µM	> 300 µM	
CCN(CCN(CC)S(=O)(=O)c1ccc(OC)c(OC)c1)S(=O)(=O)c1ccc(OC)c(OC)c1	> 300 µM	> 300 µM	
O=S(=O)(NCCNS(=O)(=O)c1ccc(O)c(O)c1)c1ccc(O)c(O)c1	518 µM	> 3000 µM	
O=S(=O)(c1ccc(O)c(O)c1)N(Cc1ccccc1)S(=O)(=O)c1ccc(O)c(O)c1	4.82 µM	> 300 µM	
CCN(CCN(CC)S(=O)(=O)c1ccc(O)c(O)c1)S(=O)(=O)c1ccc(O)c(O)c1	9.32 µM	> 1000 µM	
